Earlier results as cited in patent publication US20190167649A1, “TOPICAL RAPAMYCIN THERAPY” (THE BOARD OF REGENTS OF THE UNIVERSITY OF TEXAS SYSTEM, priority 2016, published 2019).

Rapamycin
solubility in organic solvents (benzyl alcohol, chloroform, acetone, and acetonitrile): freely soluble | solubility in water (water): 2.6 µg/mL
